Measurements published in patent US20250213474A1, “COMPOSITIONS AND METHODS FOR METAL CONTAINING FORMULATIONS CAPABLE OF MODULATING IMMUNE RESPONSE” (The Regents of the University of Michigan, priority 2021, published 2025).

Key:
B16F10 cells = experiment: B16F10 tumor model, CMP versus other STING-activating formulations; format: in vivo, C57BL/6 mice
Description: FIGS. 23A-P: Robust therapeutic effect of CMPCDA in multiple tumor models. (FIGS. 23A-23J) Therapeutic effect of CMPCDA was compared with other CDA formulations and other STING agonists in an established B16F10 tumor model. (FIGS. 23A-23E) Tumor-bearing C57BL/6 mice were treated with CMPCDA, CDA-Zn particle (CZPCDA), CDA liposome), ADU-S100, or diABZI (all 5 μg doses of STING agonists, I.T.) on the indicated time points (FIG. 23A). Shown are (FIG. 23B) the individual tumor growth, (FIG. 23C) representative photos of tumors, (FIG. 23D) average tumor growth and (FIG. 23E) survival. […] Data were analyzed by two-way ANOVA (FIG. 23D, FIG. 23I, FIG. 23P) with Bonferroni multiple comparisons post-test. Survival of (FIG. 23E, FIG. 23J, FIG. 23P) was analyzed by Kaplan-Meier survival analysis with log-rank (Mantel-Cox) test. *p and #p in (FIG. 23P) denote statistical significance relative to the untreated and CDA groups, respectively.
All animals were cared for following federal, state, and local guidelines. […] Tumor size and survival were monitored every 2-4 days. Tumor size was calculated based on equation: volume=length×width^2×0.5. […] At indicated time points, the cytokine levels in serum were measured by ELISA assay in the Cancer Center Immunology Core of the University of Michigan. The amount of tumor antigen-specific T cells among PBMC were analyzed using the IFN-γ ELISPOT assay. […]

[1] = Safety of CMP-14:0 PA in VX2 tumor bearing rabbits (body weight, AST, ALT); format: in vivo, New Zealand White rabbits; details: 1.5 mg IV on W0 and W1
Description: FIGS. 31A-31C: CMP-14:0 PA is safe in rabbits. (FIG. 31A) VX2 tumor tissues were cut into pieces and implanted within the muscle of the both hindlimbs on W-3.5. […] (FIG. 31B) Serum was collected on W2 for measurement of AST and ALT levels as indicators of liver function. (FIG. 31C) Body weight changes in VX2 tumor bearing rabbits were monitored over the two cycles of treatment.
New Zealand White rabbits were used for this study. All rabbits were housed individually in cages under constant 21° C. temperature and 12-h light/dark cycles. All animals were cared for following federal, state, and local guidelines. All animal experimental procedures performed were in accordance with and approved by the Institutional Animal Care & Use Committee (IACUC) at the University of Michigan, Ann Arbor and complied with the National Institutes of Health (NIH) Guidelines for the care and use of laboratory animals. For establishing VX2 squamous cell carcinoma in rabbits, 4 mm^3 fresh tumor tissues were cut into small pieces and resuspended in 1 mL PBS for intramuscular injections within the hindlimbs. Both hindlimbs were implanted with the tumor tissue suspension. […] In the antitumor efficacy study, two doses of CMP-14:0 PA and diABZi were given with one week interval and the rabbits were euthanized 1 week after the last dose for primary tumors and lung metastasis analysis. […]

[2] = test system: VX2 squamous cell carcinoma; experiment: Rabbit VX2 squamous cell carcinoma model; format: in vivo, New Zealand White rabbits; details: IV on W0 and W1; CMP-14:0 PA 0.5 mg, diABZi 1.5 mg; versus non-treated rabbits
Description: FIGS. 32A-E: CMP-14:0 PA exerts robust efficacy in rabbit VX2 squamous cell carcinoma model. (FIG. 32A) VX2 tumor tissues were cut into pieces and implanted within the muscle of the both hindlimbs on W-3.5. Rabbits were treated IV with 0.5 mg CMP-14:0 PA or 1.5 mg diABZi on W0 and W1. Shown are (FIG. 32B) total weight of primary tumors dissected from the muscle of the hindlimbs. (FIG. 32C) total volume of the primary tumor dissected from the muscle of the hindlimbs. (FIG. 32D) Measured tumor area ratio based on H&E staining slides of lung sections. (FIG. 32E) Representative images of the lungs.
New Zealand White rabbits were used for this study. All rabbits were housed individually in cages under constant 21° C. temperature and 12-h light/dark cycles. All animals were cared for following federal, state, and local guidelines. All animal experimental procedures performed were in accordance with and approved by the Institutional Animal Care & Use Committee (IACUC) at the University of Michigan, Ann Arbor and complied with the National Institutes of Health (NIH) Guidelines for the care and use of laboratory animals. For establishing VX2 squamous cell carcinoma in rabbits, 4 mm^3 fresh tumor tissues were cut into small pieces and resuspended in 1 mL PBS for intramuscular injections within the hindlimbs. Both hindlimbs were implanted with the tumor tissue suspension. […]

In the case of diABZI, the “anti-tumor effect after I.T. therapy” value (B16F10 cells; 5 μg doses of STING agonists, I.T.) is reported as “comparable anti-tumor responses”, the “anti-tumor effect after I.V. therapy” value (B16F10 cells; 20 μg doses, I.V.) is reported as “only minor anti-tumor effects” and the “rabbits with elevated level of AST and ALT” value [1] is reported as 1 out of 3. For the same substance, the “weight and volume of primary tumors in the hindlimbs” value [2] was “did not decrease the weight or volume of primary tumors”.
